# Reference: patent US20150218212A1, “FLUORINATED EPOXYKETONE-BASED TETRAPEPTIDE COMPOUNDS AND USES THEREOF AS PROTEASOME INHIBITORS” (FLUORINOV PHARMA INC., priority 2012, published 2015)
# Read-outs that look alike come from different tables or passages of the source.
# How the values were obtained:
# Assay type in all cases: in vivo, NOD/SCID mice
# [1] = target: T1, proteasome Trypsin-like (T-L) activity (Mus musculus, UniProt P70195+Q9R1P1); experiment: Pharmacodynamic proteasome activity in murine red blood cells, T-L; conditions: iv, mice, 2 mg/kg i.v., time 0, read-out: Trypsin-like (T-L) mean residual activity relative to vehicle treated controls
# T1 construct: RBCs were lysed with assay lysis buffer and incubated on ice for 30 minutes; from tissue; host or cells: red blood cells of NOD/SCID mice
# Description: (§1) Cells were harvested by centrifugation at 1,200 rpm at room temperature. Cell pellets were washed with PBS (phosphate buffered saline) and lysed with assay lysis buffer (50 mM HEPES (N-2-hydroxyethylpiperazine-N′-2-ethanesulfonic acid), pH 7.5; 150 mM NaCl; 1% Triton X-100; 2 mM ATP). Cell lysates were incubated on ice for 30 minutes, mixed by vortex every 5 minutes, and then centrifuged at 12,000 g for 10 minutes. The supernatant was transferred to a 96-well plate. For each assay, 10 μg of total protein were incubated for 1 hour at 37° C. with increasing concentrations (1 nM to 10 μM) of test compound diluted in assay buffer (50 mM tris-HCl (tris(hydroxymethyl)aminomethane-HCl), pH 7.5; 150 mM NaCl). DMSO alone was used as a control in every assay plate. After incubation, a specific fluorogenic proteasome substrate was added to each assay reaction at a final concentration of 40 μM in a total volume of 100 μL. N-Succinyl-Leu-Leu-Val-Tyr-7-amino-4-methylcoumarin (Suc-Leu-Leu-Val-Tyr-AMC) was used for measuring chymotrypsin-like (CT-L) activity, t-butoxycarbonyl-Leu-Arg-Arg-7-amino-4-methylcoumarin (Boc-Leu-Arg-Arg-AMC) for trypsin-like (T-L) activity, and benzyloxycarbonyl-L-leucyl-L-leucyl-L-glutamyl-7-amino-4-methylcoumarin (Z-Leu-Leu-Glu-AMC) for caspase-like (C-L) activity. The excitation wavelength was set at 360 nm and the fluorescence emission wavelength of AMC was detected at 460 nm. The fluorescence of free AMC released during the enzymatic reaction was measured with a SpectraMax M5 fluorescent spectrophotometric plate reader (Molecular Devices, Sunnyvale, Calif.). AMC release rate was measured at 37° C. in a kinetic mode, recording every 5 minutes for 30 minutes. Experiments were performed in triplicate and repeated at least twice.
# (§2) All mouse experiments were performed in accordance with approval from the Ontario Cancer Institute institutional animal review board. Five- to six-week-old male non-obese diabetic/severe combined immunodeficient (NOD/SCID) mice were grouped randomly (n=3 mice per group). Mice were administered vehicle (5% DMSO, 20% Cremophor) or compounds of Formula I at different doses either intravenously or by oral gavage, and venous blood samples (20-50 μL) were collected from each mouse over 24 hours. Blood samples were mixed with heparin (APP Pharmaceuticals; Schaumburg, Ill.) in 0.5 mL tubes in accordance with the manufacturer's instructions. After centrifugal separation at 3,000 g for 10 minutes, red blood cells (RBCs) in the bottom layer were transferred into a new tube and stored at −70° C. until use. RBCs were lysed with assay lysis buffer and incubated on ice for 30 minutes, mixing by vortex every 5 minutes, and then centrifuged at 12,000 g for 10 minutes. The supernatant was transferred to a 96-well plate and proteasome activity was measured as described above for tumor cell lysates.
# (§3) Proteasome subunit activity (Chymotrypsin-like, Trypsin-like, Caspase-like, CT-L, T-L, C-L, respectively) were monitored over the course of 24 hrs following […] administration of representative compounds of Formula I. NOD/SCID mice were treated with compounds of Formula I (2 mg/kg by iv administration) or vehicle control and carfilzomib for up to 24 hours, as described above. Table 9 summarizes the data on pharmacodynamic activity of representative compounds of Formula I following a dose of 2 mg/kg intravenous (i.v) administration to mice. Data are presented as mean residual activity (SEM) relative to vehicle treated controls.
# [2] = target: T2, proteasome Chymotrypsin-like (CT-L) activity (Mus musculus, UniProt O09061+O55234); experiment: Pharmacodynamic proteasome activity in murine red blood cells, CT-L; conditions: iv, mice, 2 mg/kg i.v.
# T2 construct: RBCs were lysed with assay lysis buffer and incubated on ice for 30 minutes; from tissue; host or cells: red blood cells of NOD/SCID mice
# Description: as §1, §2, §3
# [3] = target: T3, proteasome Caspase-like (C-L) activity (Mus musculus, UniProt P70195+Q60692); experiment: Pharmacodynamic proteasome activity in murine red blood cells, C-L; conditions: iv, mice, 2 mg/kg i.v., time 0, read-out: Caspase-like (C-L) mean residual activity relative to vehicle treated controls
# T3 construct: RBCs were lysed with assay lysis buffer and incubated on ice for 30 minutes; from tissue; host or cells: red blood cells of NOD/SCID mice
# Description: as §1, §2, §3
smiles,measurement,setting,value
"CC(C)C[C@H](NC(=O)[C@H](CCc1ccccc1)NC(=O)CN1CCOCC1)C(=O)N[C@@H](Cc1ccccc1)C(=O)N[C@@H](CC(C)C)C(=O)[C@@]1(C)CO1 [Carfilzomib, carfilzomib, reference compound]",remaining activity at 2 mg/kg,[1],100%
same,remaining activity at 2 mg/kg,"[2]; 30 min, read-out: Chymotrypsin-like (CT-L) mean residual activity relative to vehicle treated controls",48%
same,remaining activity at 2 mg/kg,"[2]; 24 hrs, read-out: Chymotrypsin-like (CT-L) mean residual activity relative to vehicle treated controls",46%
same,remaining activity at 2 mg/kg,"[2]; time 0, read-out: Chymotrypsin-like (CT-L) mean residual activity relative to vehicle treated controls",100%
same,remaining activity at 2 mg/kg,[3],100%
